Read-outs that look alike come from different tables or passages of the source. Blank lines part the entries; values can stand above or below the compound they belong to.
Legend:
[1] = system: hair growth (clipped patch of skin, upper back of male rats); experiment: Measurement of hair growth using the rat model (cumulative clipped hair weight, topical application); type: in vivo
Experimental: The effect of compounds on hair growth was assessed using male rats as an animal model as follows. In each of the comparisons reported below, 10 rats were used.
A small patch of normal skin (4cm ×4cm) on the upper back of each rat was clipped at the start of the experiment and a hair growth stimulant composition (or a control) applied twice daily topically to the clipped area. Hair was clipped from the area of the patch twice weekly, collected and weighed at each time point, and cumulative hair weight calculated. […] A positive response, ie. an increase of at least 10% by weight of hair, compared with a control, indicates the potential of the test substance to prevent hair loss and/or reverse baldness in human subjects.
In this example, the effect of topical application of D-glucaro-1,4-lactone, an inhibitor of β-glucuronidaseis shown. The test solution in this experiment contained approximately 7% (w/v) of the glucarolactone in the form of an equilibrium mixture prepared from boiled calcium glucarate. The vehicle was 33% (v/v) ethanol containing 50mM Na citrate at pH 4.2. Test or control solutions (0.3ml) were applied twice-daily to the clipped site; the hair growth results are shown below in Table 2.
This effect is illustrated in Table 3 below, in which the vehicle was 33% v/v ethanol in 50mM sodium citrate, pH4.2:
In a further experiment, glucarolactone was tested in the presence of an activity enhancer, 1-methylpyrrolidone. Again, a significant increase in hair weight was obtained, as shown below in Table 4, in which the vehicle was 33% v/v aqueous ethanol containing 50mM Na citrate buffer pH4.2 and 10% w/v 1-methylpyrrolidone. […]

hair growth = conditions: 1% solution, daily application for six months; cited from earlier work
α-glucuronidase = conditions: Levvy and Snaith (1972); cited from earlier work
β-glucuronidase [2] = molecular target: T1, β-glucuronidase (Homo sapiens, UniProt P08236); experiment: Inhibition of β-glucuronidase activity (nitrophenyl glucuronide substrate, method of Dingle); type: biochemical; conditions: for inhibition of γ-glucuronidase activity (so in the source), in words: statement referring to experiments described later
T1 sequence (P08236 23-651): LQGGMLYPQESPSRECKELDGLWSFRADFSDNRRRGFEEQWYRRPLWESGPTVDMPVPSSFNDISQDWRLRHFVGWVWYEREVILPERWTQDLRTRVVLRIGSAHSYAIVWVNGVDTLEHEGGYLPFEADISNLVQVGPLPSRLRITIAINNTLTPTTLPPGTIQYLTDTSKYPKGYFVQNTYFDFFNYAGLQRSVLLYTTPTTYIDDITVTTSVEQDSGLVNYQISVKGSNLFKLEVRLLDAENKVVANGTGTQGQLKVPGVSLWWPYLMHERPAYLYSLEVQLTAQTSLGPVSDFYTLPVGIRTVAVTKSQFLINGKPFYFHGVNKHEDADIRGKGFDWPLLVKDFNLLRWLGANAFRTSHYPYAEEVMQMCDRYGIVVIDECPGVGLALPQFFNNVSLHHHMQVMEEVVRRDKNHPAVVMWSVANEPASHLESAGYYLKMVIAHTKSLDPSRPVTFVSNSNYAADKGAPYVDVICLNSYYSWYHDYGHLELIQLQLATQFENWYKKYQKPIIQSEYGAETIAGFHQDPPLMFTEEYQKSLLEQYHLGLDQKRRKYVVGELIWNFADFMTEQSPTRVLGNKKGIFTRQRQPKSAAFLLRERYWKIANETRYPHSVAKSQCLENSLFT
Experimental: In each of the assays referred to herein, the chemical inhibitor was tested at a pH close to the optimum pH value of the relevant enzyme, and under conditions of saturating substrate concentration, to ensure that Vmax was obtained in the controls. […] The activity of each of these four exoglycosidases was measured using a method described in "Lysosomes, A Laboratory Handbook", edited by […]., Second Edition, (1977) at page 118. […] [Ibid., page 118] as described herein. […] [Ibid., page 118]. The results when the acid or the lactone were incubated with a mixture of this enzyme and the nitrophenyl glucuronide substrate were as follow: […]

β-glucuronidase [3] = molecular target: T1, β-glucuronidase; conditions: Levvy and Snaith (1972); cited from earlier work
[4] = cited from earlier work
[5] = system: hair growth (skin of shaved rabbits); conditions: repeated injection into skin of shaved rabbits; cited from earlier work
[6] = Table 3, 7% glucarolactone, 0.2% minoxidil, or both, 45 days
[7] = Table 3, 7% glucarolactone, 0.2% minoxidil, or both, vehicle 33% v/v ethanol in 50mM sodium citrate, pH4.2, vehicle control 427.2 ± 58.7
[8] = read-out: percentage inhibition of a 1mM concentration, 1 mM, worked out from 1.03 or 1.14 mM

Compound: O=C(O)[C@@H](O)[C@H]1OC(=O)[C@H](O)[C@H]1O [glucarolactone, D-glucaro-1,4-lactone]
stimulation of hair growth (increase) ([1]; 7% glucarolactone vs vehicle, Table 2): 13%
increase in hair growth ([1]; 7% glucarolactone with 0.1% w/v Triton X-100, 43 days (Table 5)): 39%
increase in hair growth ([1]; 7% glucarolactone with 10% w/v 1-methylpyrrolidone, 46 days (Table 4)): 15%
Mean Cumulative hair weight (mg) ± sd, after 45 days ([1]; Table 2, approx. 7% (w/v), 0.3 ml twice daily, vehicle 33% (v/v) ethanol, 50mM Na citrate pH 4.2, vehicle control 427.2 ± 58.7): 482.7 ± 58.4 mg
Increase in hair growth (%) (Test vs control) [1, 6]: 13%
Mean Cumulative hair weight (mg) ± sd, after 45 days [1, 7]: 482.7 ± 58.4 mg
Mean Cumulative Hair Weight (mg) ± sd, after 46 days ([1]; Table 4, 7%, vehicle 33% v/v aqueous ethanol, 50mM Na citrate pH4.2, 10% w/v 1-methylpyrrolidone, vehicle control 611.1 ± 48.1): 706.2 ± 86.6 mg
Mean Cumulative Hair Weight (mg) ± sd, after 43 days ([1]; Table 5, 7%, vehicle 20% v/v ethanol, 50mM sodium citrate pH4.2, 0.1% w/v Triton X-100, vehicle control 412.3 ± 57.5): 573.3 ± 82.5 mg
effect on hair growth in combination with a low concentration of minoxidil ([1]; result in words): synergistic effect on hair growth in combination with a low concentration of minoxidil
effect on onset of anagen / hair cycle ([1]; result in words): consistently found to advance the onset of anagen, thus reducing the amount of time spent in the resting stage of hair cycle

inhibition at 200 µg/mL (β-glucuronidase [2]; 0.2 mg/ml (1.03 mM)): 20%
enzyme inhibition in words (weak inhibitor) (β-glucuronidase [2]; 1 mM, β-glucuronidase): weak enzyme inhibitors
inhibition at 1000 µM (β-glucuronidase [2]; [8]): 19.4%
inhibition of γ-glucuronidase activity (so in the source), in words (β-glucuronidase [2]): weak inhibitors
Compound: O=C[C@H](O)[C@@H](O)[C@H](O)[C@H](O)C(=O)O [glucuronic acid, D-glucuronic acid]
regrowth of hair, in words (hair growth): regrowth of hair
inhibition of α-glucuronidase, in words (α-glucuronidase): feebly inhibited
inhibition of β-glucuronidase, in words (β-glucuronidase [3]): feebly inhibited

inhibition at 200 µg/mL (β-glucuronidase [2]; 0.2 mg/ml (1.14 mM)): 51%
enzyme inhibition in words (weak inhibitor) (β-glucuronidase [2]; 1 mM, β-glucuronidase): weak enzyme inhibitors
inhibition at 1000 µM (β-glucuronidase [2]; [8]): 44.7%
inhibition of γ-glucuronidase activity (so in the source), in words (β-glucuronidase [2]): weak inhibitors
Compound: O=C[C@H](O)[C@H]1OC(=O)[C@@H](O)[C@H]1O [glucurono-6,3-lactone, D-Glucurono-6,3-lactone]

Compound: Nc1cc(N2CCCCC2)nc(N)[n+]1[O-] [minoxidil, reference compound]
side effects of orally administered minoxidil ([4]; oral): fluid retention, tachycardia, dyspnea, gynecomastia, fatigue, nausea and cardiotoxicity
side effects following topical application ([4]; topical): certain side effects have been experienced following topical application of minoxidil
increase in hair growth ([1]; 2% (w/v) minoxidil vs vehicle, 45 days): 55%
Mean Cumulative hair weight (mg) ± sd, after 45 days ([1]; Table 1, 2% (w/v) topical twice daily, vehicle 70% ethanol, 20% water, 10% propylene glycol, vehicle control 387.3 ± 75.9): 599.2 ± 85.1 mg
Increase in hair growth (%) (Test vs control) [1, 6]: 9%
Mean Cumulative hair weight (mg) ± sd, after 45 days [1, 7]: 465.8 ± 48.8 mg
inhibition at 50 µg/mL (β-glucuronidase [2]; 0.05 mg/ml (0.24 mM)): 2%
inhibition at 400 µg/mL (β-glucuronidase [2]; 0.4 mg/ml (1.9 mM)): 12%
inhibition at 800 µg/mL (β-glucuronidase [2]; 0.8 mg/ml (3.8 mM)): 23%
enzyme inhibition in words (weak inhibitor) (β-glucuronidase [2]; 1 mM, β-glucuronidase): weak enzyme inhibitor
inhibition at 1000 µM (β-glucuronidase [2]; 1 mM, β-glucuronidase, read-out: enzyme inhibition in words (weak inhibitor)): 5 to 50%
inhibition at 1000 µM (β-glucuronidase [2]; read-out: percent inhibition of a 1mM concentration): 6%

Compound: chondroitin-6-sulphate
initiation of the hair growth cycle with stimulation of hair growth, in words [5]: also active in this respect, but to a lesser extent

Compound: dermatan sulphate
initiation of the hair growth cycle with stimulation of hair growth, in words [5]: also active in this respect, but to a lesser extent

Compound: heparan sulphate
initiation of the hair growth cycle with stimulation of hair growth, in words [5]: particularly active

Compound: zinc gluconate
increase in hair growth ([1]; 2% (w/v) zinc gluconate, 45 days (Table 6)): 16%
Mean Cumulative hair weight (mg) ± sd, after 45 days ([1]; Table 6, 2% (w/v), vehicle 20% aqueous ethanol, vehicle control 397.8 ± 56.3): 460.9 ± 45.7 mg

— patent publication US5015470A, “Cosmetic composition” (priority 1986, dated 1991)
